{"source": "the supplement of paper PMC11208160"}
{"assay": "recombinant barcode read abundance after kanamycin selection (control-corrected) (log10(CPM+1)); higher = more efficient recombination; sequences stand for … in AGTGCAGAGAAAATCGGCCAGTTTTCTCTGCCTGCAGTCCGCATGCCGT…AGATTTATGCAGCGGACTGCCTTTCTCCCAAAGTGATAAACCGGACAGTATCATGGACCGGTTTTCCCGGTAATCCGTATTTGCAAGGTTGGTTTCACT; site = the 11-nt target", "outline": "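A promoter, a target, a barcode and the first 104 bridge RNA bases under J23119 made up each oligo. Oligos were Gibson-cloned into a vector bearing the other 73 bp and a T7-inducible recombinase, then co-electroporated into E. coli with a donor plasmid and plated in duplicate on chloramphenicol/ampicillin LB agar (control) or chloramphenicol/ampicillin/kanamycin with 0.1 mM IPTG. Recombination efficiency is the averaged, control-corrected counts per million of recombinant-junction barcodes. Reported values are log10(CPM+1).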"}
{"sequence": "GACCAGCCTTGGGTTCTAACCTGTTGCAT (site GACCAGCCTAA)", "recombinant barcode read abundance (log10)": 0.106}
{"sequence": "CATTAGACTTGGGTTCTAACCTGTTGCCT (site TATTAGACTAG)", "recombinant barcode read abundance (log10)": 0.08}
{"sequence": "CCTTGCCCTTGGGTTCTAACCTGTTGCCT (site CTTTGCCCTAG)", "recombinant barcode read abundance (log10)": 0.117}
{"sequence": "AGTGAAGCTTGGGTTCTAACCTGTTGCAC (site CACTTCCCTTC)", "recombinant barcode read abundance (log10)": 0.298}
{"sequence": "AAGTGAGCTTGGGTTCTAACCTGTTGCCA (site AAGTGAGCTTG)", "recombinant barcode read abundance (log10)": 0.408}
{"sequence": "CATCGATCTTGGGTTCTAACCTGTTGCCT (site CATCGATCTAG)", "recombinant barcode read abundance (log10)": 0.558}
{"sequence": "GACCGCGCTTGGGTTCTAACCTGTTGCCT (site GACCGGGCTAG)", "recombinant barcode read abundance (log10)": 0.0432}
{"sequence": "GACACCTCTTGGGTTCTAACCTGTTGCCG (site TCTGAAACTAA)", "recombinant barcode read abundance (log10)": 0.157}
{"sequence": "GTCAAACCTTGGGTTCTAACCTGTTGCTT (site GACAAACCTAG)", "recombinant barcode read abundance (log10)": 0.274}
{"sequence": "TTAAGACCTTGGGTTCTAACCTGTTGCCT (site TTAAGACCTAG)", "recombinant barcode read abundance (log10)": 1.37}
{"sequence": "ACCTTACCTTGGGTTCTAACCTGTTGCGT (site ACCTTACCTAC)", "recombinant barcode read abundance (log10)": 1.97}
{"sequence": "CCTCAGACTTGGGTTCTAACCTGTTGCGA (site CCTCAGACTTC)", "recombinant barcode read abundance (log10)": 2.79}
{"sequence": "AAGGCCTCTTGGGTTCTAACCTGTTGCTT (site AAGCCCTCTAA)", "recombinant barcode read abundance (log10)": 0.156}
{"sequence": "GTGACTGCTTGGGTTCTAACCTGTTGCGT (site CACTAGACTCG)", "recombinant barcode read abundance (log10)": 0.0198}
{"sequence": "ACTGTATCTTGGGTTCTAACCTGTTGCCT (site GCTGTATCTAG)", "recombinant barcode read abundance (log10)": 0.0734}
{"sequence": "CTCCGACCTTGGGTTCTAACCTGTTGCTT (site CTCCGCCCTAA)", "recombinant barcode read abundance (log10)": 0.0228}
{"sequence": "AGGTGCTCTTGGGTTCTAACCTGTTGCCT (site ATGTGCTCTAG)", "recombinant barcode read abundance (log10)": 0.107}
{"sequence": "TCAGAGCCTTGGGTTCTAACCTGTTGCTG (site TCAAAGCCTCA)", "recombinant barcode read abundance (log10)": 0.025}
{"sequence": "AGCTTAGCTTGGGTTCTAACCTGTTGCCC (site AGCTTAGCTCG)", "recombinant barcode read abundance (log10)": 0.0502}
{"sequence": "GCGTCGTCTTGGGTTCTAACCTGTTGCCT (site GCGTCGTCTAG)", "recombinant barcode read abundance (log10)": 0.0822}
{"sequence": "CAGAGAGCTTGGGTTCTAACCTGTTGCCT (site CCGAGAGCTAG)", "recombinant barcode read abundance (log10)": 0.0663}
{"sequence": "ATGGGCCCTTGGGTTCTAACCTGTTGCTG (site ATGGGCCCTTA)", "recombinant barcode read abundance (log10)": 0.511}
{"sequence": "GTCGGTACTTGGGTTCTAACCTGTTGCCT (site GTCGGCACTAG)", "recombinant barcode read abundance (log10)": 0.0645}
{"sequence": "GAGCGCACTTGGGTTCTAACCTGTTGCAG (site GAGCGCACTCT)", "recombinant barcode read abundance (log10)": 1.7}
{"sequence": "TGGCAGTCTTGGGTTCTAACCTGTTGCCT (site TGGCAGGCTAG)", "recombinant barcode read abundance (log10)": 0.272}
{"sequence": "TTGATATCTTGGGTTCTAACCTGTTGCCT (site TTGAAATCTAG)", "recombinant barcode read abundance (log10)": 0.0834}
{"sequence": "TAGTTATCTTGGGTTCTAACCTGTTGCTA (site AGACGTACTAC)", "recombinant barcode read abundance (log10)": 0.134}
{"sequence": "CTCTCGTCTTGGGTTCTAACCTGTTGCGG (site CTCTCGTCTCC)", "recombinant barcode read abundance (log10)": 1.16}
{"sequence": "TCCCATCCTTGGGTTCTAACCTGTTGCCT (site TCCCATCCTAG)", "recombinant barcode read abundance (log10)": 0.757}
{"sequence": "AGTTCGACTTGGGTTCTAACCTGTTGCCT (site AGTTCGACTAG)", "recombinant barcode read abundance (log10)": 0.429}
{"sequence": "GGAGCGTCTTGGGTTCTAACCTGTTGCGT (site GGCGCGTCTAT)", "recombinant barcode read abundance (log10)": 0.299}
{"sequence": "AGCGGACCTTGGGTTCTAACCTGTTGCCT (site AGCGGACCTAG)", "recombinant barcode read abundance (log10)": 1.45}
{"sequence": "CGGGCCTCTTGGGTTCTAACCTGTTGCAC (site CGGTCCTCTGC)", "recombinant barcode read abundance (log10)": 0.209}
{"sequence": "TGTATGTCTTGGGTTCTAACCTGTTGCCT (site TGTATGTCTAG)", "recombinant barcode read abundance (log10)": 0.0364}
{"sequence": "AGGGGCACTTGGGTTCTAACCTGTTGCCG (site ACGGTCACTCG)", "recombinant barcode read abundance (log10)": 0.104}
{"sequence": "GGTGACCCTTGGGTTCTAACCTGTTGCGG (site GGTAACCCTCC)", "recombinant barcode read abundance (log10)": 2.05}
{"sequence": "GAGTCTACTTGGGTTCTAACCTGTTGCAG (site GAGTCTACTCG)", "recombinant barcode read abundance (log10)": 0.339}
{"sequence": "ACCTGGGCTTGGGTTCTAACCTGTTGCCT (site ACCTGGGCTAG)", "recombinant barcode read abundance (log10)": 0.0605}
{"sequence": "AGCCTGACTTGGGTTCTAACCTGTTGCCT (site AGCCTGTCTAG)", "recombinant barcode read abundance (log10)": 0}
{"sequence": "GATCGATCTTGGGTTCTAACCTGTTGCCT (site GATCGATCTAC)", "recombinant barcode read abundance (log10)": 0.159}
{"sequence": "GTCCATTCTTGGGTTCTAACCTGTTGCAT (site GTCCATTCTAT)", "recombinant barcode read abundance (log10)": 1.56}
{"sequence": "AACACGACTTGGGTTCTAACCTGTTGCTC (site AACACGACTGA)", "recombinant barcode read abundance (log10)": 0.171}
{"sequence": "TGATCTACTTGGGTTCTAACCTGTTGCTT (site TGATCTACTAA)", "recombinant barcode read abundance (log10)": 0.0729}
{"sequence": "GAATCTTCTTGGGTTCTAACCTGTTGCTT (site GAATCTTCTAA)", "recombinant barcode read abundance (log10)": 0.0983}
{"sequence": "CTTACGACTTGGGTTCTAACCTGTTGCCT (site GTTACAACTAG)", "recombinant barcode read abundance (log10)": 0.355}
{"sequence": "TCCAGGGCTTGGGTTCTAACCTGTTGCCT (site TCCAGGGCTAG)", "recombinant barcode read abundance (log10)": 0.185}
{"sequence": "TATCGGCCTTGGGTTCTAACCTGTTGCCT (site TACCGGCCTAG)", "recombinant barcode read abundance (log10)": 0.0568}
{"sequence": "TCCCATACTTGGGTTCTAACCTGTTGCGA (site TCCCATACTTC)", "recombinant barcode read abundance (log10)": 1.57}
{"sequence": "TAGGCTGCTTGGGTTCTAACCTGTTGCCT (site TAGCCTGCTAG)", "recombinant barcode read abundance (log10)": 0}
{"sequence": "TGTCAACCTTGGGTTCTAACCTGTTGCGT (site TGTCAAACTAC)", "recombinant barcode read abundance (log10)": 0.0902}
{"sequence": "CCAGGTACTTGGGTTCTAACCTGTTGCCT (site CCAGGTACTAG)", "recombinant barcode read abundance (log10)": 0.701}
{"sequence": "CGATGGACTTGGGTTCTAACCTGTTGCTG (site CGATGGACTCA)", "recombinant barcode read abundance (log10)": 1.81}
{"sequence": "AGTCTCTCTTGGGTTCTAACCTGTTGCCT (site AGTCTCTCTAG)", "recombinant barcode read abundance (log10)": 0.688}
{"sequence": "GGGCACACTTGGGTTCTAACCTGTTGCAC (site GGGCACACTGT)", "recombinant barcode read abundance (log10)": 2.52}
{"sequence": "ATACAATCTTGGGTTCTAACCTGTTGCCT (site ATACAATCTAG)", "recombinant barcode read abundance (log10)": 1.13}
{"sequence": "AGTAAGCCTTGGGTTCTAACCTGTTGCAG (site ACTAAGCCTCC)", "recombinant barcode read abundance (log10)": 0.133}
{"sequence": "TATGTGTCTTGGGTTCTAACCTGTTGCCT (site TAAGTGTCTAG)", "recombinant barcode read abundance (log10)": 1.67}
{"sequence": "CCTGACTCTTGGGTTCTAACCTGTTGCCT (site CCTGATTCTAG)", "recombinant barcode read abundance (log10)": 0.195}
{"sequence": "TAACCTCCTTGGGTTCTAACCTGTTGCCT (site TAACCTACTAG)", "recombinant barcode read abundance (log10)": 0.0181}
{"sequence": "CAGGGTTCTTGGGTTCTAACCTGTTGCCT (site CTGGGTTCTAG)", "recombinant barcode read abundance (log10)": 0.21}
{"sequence": "GGGTCACCTTGGGTTCTAACCTGTTGCGG (site GGGTCACCTCC)", "recombinant barcode read abundance (log10)": 2.8}
{"sequence": "ACATAGACTTGGGTTCTAACCTGTTGCGC (site ACAAAGACTGC)", "recombinant barcode read abundance (log10)": 0.084}
{"sequence": "CGTCGGGCTTGGGTTCTAACCTGTTGCAG (site CCTCGGGCTCT)", "recombinant barcode read abundance (log10)": 0.107}
{"sequence": "AAGAAGCCTTGGGTTCTAACCTGTTGCCT (site AAGAAGCCTAG)", "recombinant barcode read abundance (log10)": 2.01}
{"sequence": "ACAAACCCTTGGGTTCTAACCTGTTGCCT (site ACAAAACCTAG)", "recombinant barcode read abundance (log10)": 0.214}
{"sequence": "ATCTATCCTTGGGTTCTAACCTGTTGCAT (site ACCTAACCTAT)", "recombinant barcode read abundance (log10)": 0.179}
{"sequence": "TAGTCGTCTTGGGTTCTAACCTGTTGCTT (site TAGTCGTCTAG)", "recombinant barcode read abundance (log10)": 0.309}
{"sequence": "CACTTGTCTTGGGTTCTAACCTGTTGCCA (site CACTTGTCTTG)", "recombinant barcode read abundance (log10)": 0.0547}
{"sequence": "AGCTTACCTTGGGTTCTAACCTGTTGCCT (site GGCTTACCTAG)", "recombinant barcode read abundance (log10)": 0.105}
{"sequence": "TATTCTACTTGGGTTCTAACCTGTTGCGG (site TATTCTACTTC)", "recombinant barcode read abundance (log10)": 0.169}
{"sequence": "GTCGGAACTTGGGTTCTAACCTGTTGCCT (site GTCGGGACTAG)", "recombinant barcode read abundance (log10)": 0.174}
{"sequence": "ACCAGAGCTTGGGTTCTAACCTGTTGCCT (site ACAAGAGCTAG)", "recombinant barcode read abundance (log10)": 0.131}
{"sequence": "GTTACCGCTTGGGTTCTAACCTGTTGCCT (site GTTACCGCTAG)", "recombinant barcode read abundance (log10)": 1.64}
{"sequence": "AGGCGCCCTTGGGTTCTAACCTGTTGCAA (site AGGCGCCCTTT)", "recombinant barcode read abundance (log10)": 0.635}
{"sequence": "GAGCGAGCTTGGGTTCTAACCTGTTGCAG (site GAGCGAGCTCT)", "recombinant barcode read abundance (log10)": 1.46}
{"sequence": "TGTTAGCCTTGGGTTCTAACCTGTTGCCT (site GGCTAGCCTAG)", "recombinant barcode read abundance (log10)": 0.0606}
{"sequence": "GAGCTTGCTTGGGTTCTAACCTGTTGCGA (site GAGCTTGCTTC)", "recombinant barcode read abundance (log10)": 0.949}
{"sequence": "GTTCCGGCTTGGGTTCTAACCTGTTGCCT (site GTTCCGGCTAG)", "recombinant barcode read abundance (log10)": 0.834}
{"sequence": "TATGTGTCTTGGGTTCTAACCTGTTGCCT (site TAGGTGTCTAG)", "recombinant barcode read abundance (log10)": 0.0112}
{"sequence": "GTACGTCCTTGGGTTCTAACCTGTTGCCT (site GTACGTCCTAA)", "recombinant barcode read abundance (log10)": 0.112}
{"sequence": "TATCCTCCTTGGGTTCTAACCTGTTGCCG (site GTGGAGTCTAC)", "recombinant barcode read abundance (log10)": 0.177}
{"sequence": "CATTTCTCTTGGGTTCTAACCTGTTGCCT (site TATTTCTCTAG)", "recombinant barcode read abundance (log10)": 0.00749}
{"sequence": "GTAACCGCTTGGGTTCTAACCTGTTGCCT (site GTGACCGCTAG)", "recombinant barcode read abundance (log10)": 0.115}
{"sequence": "GACTGCCCTTGGGTTCTAACCTGTTGCGG (site GACTGCCCTCC)", "recombinant barcode read abundance (log10)": 1.54}
{"sequence": "GTTTGGACTTGGGTTCTAACCTGTTGCAG (site GTTTGGACTCT)", "recombinant barcode read abundance (log10)": 1.11}
{"sequence": "CATTAGACTTGGGTTCTAACCTGTTGCCT (site CATTAGACTAG)", "recombinant barcode read abundance (log10)": 0.423}
